The results in this text go back to patent publication US20260258035A1, “FIVE-MEMBERED AND SIX-MEMBERED NITROGEN-CONTAINING COMPOUND, AND INTERMEDIATE, PREPARATION METHOD AND USE THEREOF” (HANGZHOU SYNRX THERAPEUTICS BIOMEDICAL TECHNOLOGY CO., LTD., priority 2022, published 2026).

Molecules are shown by their SMILES.

Series [1] addresses PARG (Homo sapiens, UniProt Q86W56). The series can be described thus: Biochemical assay (PARG, TFMU-ADPr substrate).
Series [2] has as its target T1, PXR (Homo sapiens, UniProt O75469).
T1 construct: host or cells: DPX2 (HepG2)
T1 sequence (O75469 1-434): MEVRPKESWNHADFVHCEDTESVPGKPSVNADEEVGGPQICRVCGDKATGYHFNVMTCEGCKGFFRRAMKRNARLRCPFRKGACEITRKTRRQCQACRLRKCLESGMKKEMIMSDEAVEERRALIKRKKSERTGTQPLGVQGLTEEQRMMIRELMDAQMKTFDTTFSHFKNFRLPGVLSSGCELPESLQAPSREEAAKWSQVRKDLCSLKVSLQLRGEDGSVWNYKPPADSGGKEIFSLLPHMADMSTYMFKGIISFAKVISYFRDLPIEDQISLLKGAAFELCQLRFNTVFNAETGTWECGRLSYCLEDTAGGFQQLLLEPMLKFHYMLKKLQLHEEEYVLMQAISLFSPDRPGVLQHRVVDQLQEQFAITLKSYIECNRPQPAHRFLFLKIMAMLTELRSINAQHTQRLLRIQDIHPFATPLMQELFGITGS
Kind of series: PXR assay (DPX2 luciferase reporter cells). In kind it is cell-based. To be noted: 24 h; for PXR Activation @30 uM (% Ctrl): positive control rifampicin. The procedure:
1) Information of Cell Line
DPX2 (HepG2 cells stably transfected with PXR and luciferase reporter) cells were purchased from Puracyp Inc (Carlsbad, CA).
2) Experimental Procedures a) Reagents and Consumables
The DPX2 cells were cultured in the growth medium containing 1000 fetal bovine serum. The DPX2 cells in a T-75 flask were cultured in the […] incubator at 37° C. with 950% relative humidity, and digested when the cells grew to cover 80-90% of the bottom of the flask.
The surface layer of the T-75 cultured cells was washed with 10 mL of PBS; PBS was pipetted; 3-5 mL of tryp sin was added; the cells were digested at 37° C. for 5 minutes or until the cells were digested to be suspended; and excessive medium containing fetal bovine serum was added to stop trypsinization. The cell suspension was transferred to a conical-bottomed centrifuge tube and centrifuged at 150 g rpm for 5 minutes at room temperature; the supernatant was carefully pipetted; and the cells were resuspended with the treatment medium, with the concentration adjusted to 3.2×10^5 cells/mL (incubation time: 24 hours, plate seeding density: […]). 25 μL of the cell suspension was added to each well of the 384-well cell culture plate.
The cell culture plate was placed and cultured for 24 h in the […] incubator with 9500 humidity at 37° C. c) Formulation of Compound
The stock solution of each of 1000× test compound, the positive control (rifampicin), and the negative control (propranolol) was prepared with DMSO. The final concentrations of the positive control (rifampicin) were 1 μM and 10 μM, and the final concentration of the negative control (propranolol) was 10 μM. The final concentrations of the test compound were 10 μM, 1 μM, 0.1 μM, or EC50 (30 μM, 10 μM, 3 μM, 1 μM, 0.3 μM, 0.1 μM). The final concentration of DMSO was 0.10. The cell culture plate was taken out from the incubator, and 25 nL of the stock solution of the positive control, negative control or test compound was directly added with Echo, each with three parallel concentrations. The cell culture plate was placed in the incubator and continued to be incubated for 24 h. Before starting the assay with the substrate, the cell morphology and the monolayer integrity were checked to ensure that the monolayer was of acceptable research quality. […]
d) Quantitative Detection with PXR Activation
After 24 hours of dosing, the culture could be quantitatively detected with PXR activation. The CellTiter-Fluor™ Cell Viability Assay Kit and One-Glo Luciferase reagent were equilibrated to room temperature. The GF-AFC substrate (10 μL) was added to the assay buffer (10 ml) to develop a 2× reagent, which was then diluted into a 1× reagent with 10 ml of PBS. The ONE-Glo Luciferase substrate was added to the ONE-Glo Luciferase assay buffer. The culture plate was taken out from the incubator; the medium was discarded; 1× of CellTiter-Fluor™ reagent was poured into the loading slot; 25 μL of reagent were added per well to the culture plate with a pipetting workstation; and the culture plate was then incubated in the incubator for 30 minutes. The cell culture plate was taken out from the incubator, and cooled slightly to room temperature; and the fluorescence value was determined with a fully automatic quantitative microplate reader, with the excitation light of 400 nm and the emission light of 505 nm. The ONE-Glo reagent was poured into the loading slot, with 25 μL per well, and the resulting mixture was gently mixed in the plate, and incubated at room temperature for 5 minutes to determine the luminescence value.
On the technique in general: Reporter assays use an easily measured gene product as a stand-in for the process of interest.

Setting [3] is: 4 nM PARG, 66.2 uM TFMU-ADPr, 3 min at room temperature.

Chain of PARG (Q86W56 whole entry): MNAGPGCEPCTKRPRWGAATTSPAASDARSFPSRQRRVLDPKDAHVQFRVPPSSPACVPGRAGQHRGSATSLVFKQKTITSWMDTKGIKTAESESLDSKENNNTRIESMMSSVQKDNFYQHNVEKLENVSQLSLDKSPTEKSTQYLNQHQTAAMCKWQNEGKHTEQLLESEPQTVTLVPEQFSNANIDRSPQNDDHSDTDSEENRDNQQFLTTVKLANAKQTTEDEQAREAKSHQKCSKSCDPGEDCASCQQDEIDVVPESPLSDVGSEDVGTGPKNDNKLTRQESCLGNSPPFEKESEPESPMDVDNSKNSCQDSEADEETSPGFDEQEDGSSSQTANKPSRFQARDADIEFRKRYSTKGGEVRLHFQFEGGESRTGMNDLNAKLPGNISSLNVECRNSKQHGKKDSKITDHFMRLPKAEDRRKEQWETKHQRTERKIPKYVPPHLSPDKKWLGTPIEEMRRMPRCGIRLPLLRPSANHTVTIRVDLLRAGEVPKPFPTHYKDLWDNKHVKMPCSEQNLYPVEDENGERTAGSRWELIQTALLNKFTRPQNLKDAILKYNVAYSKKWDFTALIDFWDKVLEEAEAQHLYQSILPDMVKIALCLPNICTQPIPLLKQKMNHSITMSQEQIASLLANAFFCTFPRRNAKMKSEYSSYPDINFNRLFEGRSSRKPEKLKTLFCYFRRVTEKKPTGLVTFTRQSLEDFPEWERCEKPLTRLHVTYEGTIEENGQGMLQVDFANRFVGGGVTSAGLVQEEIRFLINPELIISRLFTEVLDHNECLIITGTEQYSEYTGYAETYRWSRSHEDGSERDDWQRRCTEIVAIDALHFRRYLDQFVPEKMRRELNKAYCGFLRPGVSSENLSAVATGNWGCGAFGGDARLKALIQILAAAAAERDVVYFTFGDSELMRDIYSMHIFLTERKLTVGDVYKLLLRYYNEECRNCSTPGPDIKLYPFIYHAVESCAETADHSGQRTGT

Consider `CC(C)C(=O)N1CCN(c2cc(S(=O)(=O)NC3(C#N)CC3)cn3c(-c4nnc(C(F)F)s4)ncc23)CC1` [Example 32, N-(1-cyanocyclopropyl)-3-(5-(difluoromethyl)-1,3,4-thiadiazol-2-yl)-8-(4-isobutyrylpiperazin-1-yl)imidazo[1,5-a]pyridine-6-sulfonamide], for which the concentration for half-maximal inhibition (IC50) in series [1] (setting [3]) is below 100 nM; in series [1] (PARG, TFMU-ADPr substrate), 0.77 nM. Also, the “PXR Activation @30 uM (Fold)” value in series [2] is given as 2.7 Fold. In series [2], the “PXR Activation @30 uM (% Ctrl)” value is 19 % Ctrl.
The like results for `CC(C)C(=O)N1CCN(c2cc(S(=O)(=O)NC3(C#N)CC3)cn3c(-c4nnc(C(F)(F)F)s4)ncc23)CC1` [Example 167, N-(1-cyanocyclopropyl)-8-(4-isobutyrylpiperazin-1-yl)-3-(5-(trifluoromethyl)-1,3,4-thiadiazol-2-yl)imidazo[1,5-a]pyridine-6-sulfonamide] were, in that order, below 100 nM, 16.6 nM, 5.0 Fold and 34 % Ctrl.

As a reminder, the IC50 is the concentration that gives 50% inhibition. Higher therefore signals weaker potency in that assay.
